Experimental findings from US20180334447A1, “2,3,4,5-TETRAHYDROPYRIDIN-6-AMINE DERIVATIVES” (JANSSEN PHARMACEUTICA NV, priority 2015, published 2018) are described below.

Some results are limits rather than exact numbers.

Assay [1] concerns Abeta 1-42 produced and secreted into the medium of human neuroblastoma SKNBE2 cells. In words: Cellular αLisa assay in SKNBE2 cells, Abeta 42. To be noted: SKNBE2 cells expressing hAPP695, incubated for 18 hours; for IC50: Homo sapiens, SKNBE2, 18 h, read-out: Cellular αLisa assay in SKNBE2 cells Abeta 42 pIC50 (converted). The assay is classed as cell-based. Here is the method:
In two αLisa assays the levels of Abeta 1-42 produced and secreted into the medium of human neuroblastoma SKNBE2 cells are quantified. The assay is based on the human neuroblastoma SKNBE2 expressing the wild type Amyloid Precursor Protein (hAPP695). The compounds are diluted and added to these cells, incubated for 18 hours and then measurements of Abeta 1-42 are taken. Abeta 1-42 are measured by sandwich αLisa. αLisa is a sandwich assay using biotinylated antibody AbN/25 attached to streptavidin coated beads and antibody cAb42/26 conjugated acceptor beads for the detection of Abeta 1-42 respectively. In the presence of Abeta 1-42, the beads come into close proximity. The excitation of the donor beads provokes the release of singlet oxygen molecules that trigger a cascade of energy transfer in the acceptor beads, resulting in light emission. Light emission is measured after 1 hour incubation (excitation at […] and emission at 615 nm).
(§1) A best-fit curve is fitted by a minimum sum of squares method to the plot of % Controlmin versus compound concentration. From this an IC50 value (inhibitory concentration causing 50% inhibition of activity) can be obtained.

The target of assay [2] is T1, recombinant BACE1 protein (Homo sapiens, UniProt P56817).
T1 construct: recombinant BACE1 protein in a final concentration of 1 μg/ml
In words: BACE1 biochemical FRET based assay - Method 1. The conditions noted are these: BACE1, 120 minutes at room temperature, pH 5.0; read-out: Biochemical FRET based assay - Method 1 pIC50 (converted).
Description: (§2) This assay is a Fluorescence Resonance Energy Transfer Assay (FRET) based assay. The substrate for this assay is an APP derived 13 amino acids peptide that contains the ‘Swedish’ Lys-Met/Asn-Leu mutation of the amyloid precursor protein (APP) beta-secretase cleavage site. This substrate also contains two fluorophores: (7-methoxycoumarin-4-yl) acetic acid (Mca) is a fluorescent donor with excitation wavelength at 320 nm and emission at 405 nm and 2,4-Dinitrophenyl (Dnp) is a proprietary quencher acceptor. […] Upon cleavage by BACE1, the fluorophore Mca is separated from the quenching group Dnp, restoring the full fluorescence yield of the donor. The increase in fluorescence is linearly related to the rate of proteolysis.
Briefly in a 384-well format recombinant BACE1 protein in a final concentration of 1 μg/ml is incubated for 120 minutes at room temperature with 10 μm substrate in incubation buffer (40 mM Citrate buffer pH 5.0, 0.04% PEG, 4% DMSO) in the absence or presence of compound. Next the amount of proteolysis is directly measured by fluorescence measurement at T=0 and T=120 (excitation at 320 nm and emission at 405 nm). Results are expressed in RFU (Relative Fluorescence Units), as difference between T120 and T0.
as §1

Assay [3] concerns the target T2, recombinant BACE2 protein (Homo sapiens, UniProt Q9Y5Z0).
T2 construct: recombinant BACE2 protein in a final concentration of 0.4 μg/ml
T2 sequence (Q9Y5Z0 63-518): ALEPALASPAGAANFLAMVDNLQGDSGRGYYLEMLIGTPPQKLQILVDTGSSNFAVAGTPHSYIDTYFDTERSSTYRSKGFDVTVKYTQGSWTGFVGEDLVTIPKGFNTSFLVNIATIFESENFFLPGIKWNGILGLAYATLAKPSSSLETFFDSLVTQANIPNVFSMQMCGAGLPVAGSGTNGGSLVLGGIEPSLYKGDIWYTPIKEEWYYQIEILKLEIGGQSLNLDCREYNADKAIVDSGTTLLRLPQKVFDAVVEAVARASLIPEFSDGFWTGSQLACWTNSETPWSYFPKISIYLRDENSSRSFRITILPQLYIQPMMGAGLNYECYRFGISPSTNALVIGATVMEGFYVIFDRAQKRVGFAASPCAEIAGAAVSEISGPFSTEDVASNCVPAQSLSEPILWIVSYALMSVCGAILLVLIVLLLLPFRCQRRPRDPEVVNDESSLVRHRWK
As to the kind of experiment: BACE2 biochemical FRET based assay. To be noted: BACE2, 450 minutes at room temperature, pH 5.0; read-out: Biochemical FRET based assay pIC50 (converted).
Description: as §2, with “assay” for “assay is an APP derived 13 amino acids peptide that”, “the beta-secretase,” for “BACE1,”
Briefly in a 384-well format recombinant BACE2 protein in a final concentration of 0.4 μg/ml is incubated for 450 minutes at room temperature with 10 μM substrate in incubation buffer (50 mM Citrate buffer pH 5.0, 0.05% PEG, no DMSO) in the absence or presence of compound. Next the amount of proteolysis is directly measured by fluorescence measurement at T=0 and T=450 (excitation at 320 nm and emission at 405 nm). Results are expressed in RFU (Relative Fluorescence Units), as difference between T450 and T0.
as §1

T1 sequence (P56817 46-501): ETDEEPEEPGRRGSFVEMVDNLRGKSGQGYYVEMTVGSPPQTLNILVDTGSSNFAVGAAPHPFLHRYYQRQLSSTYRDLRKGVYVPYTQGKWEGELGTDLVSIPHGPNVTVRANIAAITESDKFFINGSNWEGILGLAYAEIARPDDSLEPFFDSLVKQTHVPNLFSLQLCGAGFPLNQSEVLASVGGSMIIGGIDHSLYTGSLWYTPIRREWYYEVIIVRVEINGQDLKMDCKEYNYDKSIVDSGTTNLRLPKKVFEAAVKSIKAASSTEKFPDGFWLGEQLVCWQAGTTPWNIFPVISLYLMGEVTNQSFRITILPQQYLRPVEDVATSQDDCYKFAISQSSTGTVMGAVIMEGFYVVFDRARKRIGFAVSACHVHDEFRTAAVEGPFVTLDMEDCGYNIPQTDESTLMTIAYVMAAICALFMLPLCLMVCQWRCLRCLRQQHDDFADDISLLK

Take `COc1cnc(C(=O)Nc2ccc(F)c([C@@]3(C(F)F)CC[C@](C)(C#N)C(N)=N3)c2)cn1` [Compound 13]: the IC50 in assay [1] is above 8910 nM; in assay [2], above 10000 nM; in assay [3], above 10000 nM.
As to `COc1cnc(C(=O)Nc2ccc(F)c(C3(CF)CCC(C)(S(C)(=O)=O)C(N)=N3)c2)nc1` (stereo not drawn) [Compound 45], the IC50 was 3.24 nM in assay [1], 3.16 nM in assay [2] and 13.5 nM in assay [3].
As for `COc1cnc(C(=O)Nc2ccc(F)c([C@]3(C(F)F)CC[C@](C)(C#N)C(N)=N3)c2)cn1` [Compound 11], the IC50 is 339 nM in assay [1], 138 nM in assay [2] and 891 nM in assay [3].
`COc1cnc(C(=O)Nc2ccc(F)c([C@]3(CF)CC[C@@](C)(C#N)C(N)=N3)c2)cn1` [Compound 5]: the IC50 in assay [1] is 50.1 nM; in assay [2], 53.7 nM; in assay [3], 417 nM.
The like results for `CC1(S(C)(=O)=O)CCC(CF)(c2cc(NC(=O)c3ncc(Cl)cn3)ccc2F)N=C1N` (stereo not drawn) [Compound 44] were, in that order, 1.15 nM, 3.63 nM and 3.39 nM.
Take `COc1cnc(C(=O)Nc2ccc(F)c([C@@]3(C)N=C(N)[C@](C)(S(C)(=O)=O)C[C@@H]3F)c2)cn1` [Compound 17]: the IC50 in assay [1] is 14.5 nM; in assay [2], 30.9 nM; in assay [3] it was 93.3 nM.
Consider `COc1cnc(C(=O)Nc2ccc(F)c(C3(C)CCC(C)(C#N)C(N)=N3)c2)cn1` (single isomer, unassigned) [Compound 16], for which the “Cellular αLisa assay in SKNBE2 cells Abeta 42 pIC50” value in assay [1] is 7.35. Further, the IC50 is 257 nM in assay [2] and 1350 nM in assay [3].
On to `CO[C@@H]1C[C@@](C)(S(C)(=O)=O)C(N)=N[C@]1(C)c1cc(NC(=O)c2cnc(OCF)cn2)ccc1F` [Compound 48a], for which the IC50 in assay [1] is 16.6 nM; in assay [2], 24 nM; in assay [3], 447 nM.
For the compound `COc1cnc(C(=O)Nc2ccc(F)c(C3(C)CCC(C)(C#N)C(N)=N3)c2)cn1` (single isomer, unassigned) [Compound 15], in assay [1], the “Cellular αLisa assay in SKNBE2 cells Abeta 42 pIC50” value was determined as 8.16. Further, the results for the IC50 in assay [2] and in assay [3] were 9.77 nM and 66.1 nM, respectively.
As for `COc1cnc(C(=O)Nc2ccc(F)c([C@]3(C(F)F)CC[C@@](C)(C#N)C(N)=N3)c2)cn1` [Compound 14], the IC50 in assay [1] was 49 nM; in assay [2] it was 11.7 nM; in assay [3], 115 nM.
The like results for `COc1cnc(C(=O)Nc2ccc(F)c([C@]3(C)CC[C@@](C)(S(C)(=O)=O)C(N)=N3)c2)cn1` [Compound 10] were, in that order, 1.12 nM, 3.89 nM and 21.9 nM.
The like results for `CC1(S(=O)(=O)C2CC2)CCC(CF)(c2cc(NC(=O)c3ccc(F)cn3)ccc2F)N=C1N` (stereo not drawn) [Compound 25] were, in that order, 3.72 nM, 2.4 nM and 2.04 nM.
For `COc1cnc(C(=O)Nc2ccc(F)c([C@@]3(C)N=C(N)[C@@](C)(C#N)C[C@@H]3F)c2)cn1` [Compound 7] the same measures were 66.1 nM, 79.4 nM and 562 nM.
Take `COc1cnc(C(=O)Nc2ccc(F)c([C@@]3(C)N=C(N)[C@](C)(C#N)C[C@@H]3F)c2)cn1` [Compound 8]: the values for the IC50 in assay [1], in assay [2] and in assay [3] were 13.2 nM, 12.9 nM and 70.8 nM, respectively.
For the compound `CC1(S(C)(=O)=O)CCC(CF)(c2cc(NC(=O)c3ncc(C(F)(F)F)cn3)ccc2F)N=C1N` (stereo not drawn) [Compound 43], the figures for the IC50 in assay [1], in assay [2] and in assay [3] were 4.47 nM, 9.12 nM and 64.6 nM, respectively.
Turning to `Cc1nc(C(=O)Nc2ccc(F)c(C3(CF)CCC(C)(S(C)(=O)=O)C(N)=N3)c2)co1` (stereo not drawn) [Compound 40], the figures for the IC50 in assay [1], in assay [2] and in assay [3] were 1.86 nM, 4.57 nM and 3.31 nM, respectively.
The like results for `COc1cnc(C(=O)Nc2ccc(F)c([C@@]3(C)N=C(N)[C@@](C)(S(C)(=O)=O)C[C@@H]3F)c2)cn1` [Compound 18] were, in that order, 3550 nM, 5750 nM and above 10000 nM.
The like results for `C[C@]1(S(C)(=O)=O)CC(F)(F)[C@@](C)(c2cc(NC(=O)c3cnc(OCF)cn3)ccc2F)N=C1N` [Compound 23] were, in that order, 4470 nM, 1660 nM and 4680 nM.
The like results for `COc1cnc(C(=O)Nc2ccc(F)c([C@]3(CF)CC[C@](C)(S(C)(=O)=O)C(N)=N3)c2)cn1` [Compound 1] were, in that order, 1350 nM, 2630 nM and above 10000 nM.
In the case of `CC1(S(C)(=O)=O)CCC(CF)(c2cc(NC(=O)c3cnc(C(F)F)cn3)ccc2F)N=C1N` (stereo not drawn) [Compound 42], the IC50 in assay [1] is 2.4 nM; in assay [2], 3.8 nM; in assay [3] it was 22.4 nM.
The like results for `CC1(S(C)(=O)=O)CCC(CF)(c2cc(NC(=O)c3ncc(F)cn3)ccc2F)N=C1N` (stereo not drawn) [Compound 38] were, in that order, 7.08 nM, 3.89 nM and 4.17 nM.
For `COc1cnc(C(=O)Nc2ccc(F)c([C@@]3(C(F)F)CC[C@@](C)(C#N)C(N)=N3)c2)cn1` [Compound 12], the IC50 in assay [1] is above 8910 nM; in assay [2], 6760 nM; in assay [3], above 10000 nM.
The like results for `CO[C@H]1C[C@@](C)(C#N)C(N)=N[C@]1(C)c1cc(NC(=O)c2cnc(OCF)cn2)ccc1F` [Compound 49a] were, in that order, 17 nM, 33.9 nM and 324 nM.
For `COc1cnc(C(=O)Nc2ccc(F)c([C@]3(CF)CC[C@](C)(C#N)C(N)=N3)c2)cn1` [Compound 4] the same measures were 692 nM, 851 nM and 5750 nM.
Take `C[C@]1(S(C)(=O)=O)CC[C@@](CF)(c2cc(NC(=O)c3ccc(F)cn3)ccc2F)N=C1N` [Compound 19]: the values for the IC50 in assay [1], in assay [2] and in assay [3] were 380 nM, 380 nM and 302 nM, respectively.
With `C[C@@]1(S(C)(=O)=O)CC[C@@](CF)(c2cc(NC(=O)c3ccc(F)cn3)cc(F)c2F)N=C1N` [Compound 47], the figures for the IC50 in assay [1], in assay [2] and in assay [3] were 16.6 nM, 3.55 nM and 4.37 nM, respectively.
Take `COc1cnc(C(=O)Nc2ccc(F)c([C@@]3(C)N=C(N)[C@@](C)(C#N)C[C@H]3F)c2)cn1` [Compound 6]: the figures for the IC50 in assay [1], in assay [2] and in assay [3] were 240 nM, 145 nM and 537 nM, respectively.
